Experimental data from patent US20090111105A1 (priority 2007, published 2009).

Assays:
[1] = system: male sexual behaviour; conditions: in comparison with testosterone; Arteaga-Silva et al. 2005; cited from earlier work
[2] = system: prostate; conditions: Arteaga-Silva et al. 2005; cited from earlier work
[3] = biological target: T1, androgen receptor (AR) (Homo sapiens, UniProt P10275); conditions: SH-SY5Y cells, 1f-pGI3 + pSG5AR, FIG. 8 and FIG. 10
T1 sequence (P10275 1-920): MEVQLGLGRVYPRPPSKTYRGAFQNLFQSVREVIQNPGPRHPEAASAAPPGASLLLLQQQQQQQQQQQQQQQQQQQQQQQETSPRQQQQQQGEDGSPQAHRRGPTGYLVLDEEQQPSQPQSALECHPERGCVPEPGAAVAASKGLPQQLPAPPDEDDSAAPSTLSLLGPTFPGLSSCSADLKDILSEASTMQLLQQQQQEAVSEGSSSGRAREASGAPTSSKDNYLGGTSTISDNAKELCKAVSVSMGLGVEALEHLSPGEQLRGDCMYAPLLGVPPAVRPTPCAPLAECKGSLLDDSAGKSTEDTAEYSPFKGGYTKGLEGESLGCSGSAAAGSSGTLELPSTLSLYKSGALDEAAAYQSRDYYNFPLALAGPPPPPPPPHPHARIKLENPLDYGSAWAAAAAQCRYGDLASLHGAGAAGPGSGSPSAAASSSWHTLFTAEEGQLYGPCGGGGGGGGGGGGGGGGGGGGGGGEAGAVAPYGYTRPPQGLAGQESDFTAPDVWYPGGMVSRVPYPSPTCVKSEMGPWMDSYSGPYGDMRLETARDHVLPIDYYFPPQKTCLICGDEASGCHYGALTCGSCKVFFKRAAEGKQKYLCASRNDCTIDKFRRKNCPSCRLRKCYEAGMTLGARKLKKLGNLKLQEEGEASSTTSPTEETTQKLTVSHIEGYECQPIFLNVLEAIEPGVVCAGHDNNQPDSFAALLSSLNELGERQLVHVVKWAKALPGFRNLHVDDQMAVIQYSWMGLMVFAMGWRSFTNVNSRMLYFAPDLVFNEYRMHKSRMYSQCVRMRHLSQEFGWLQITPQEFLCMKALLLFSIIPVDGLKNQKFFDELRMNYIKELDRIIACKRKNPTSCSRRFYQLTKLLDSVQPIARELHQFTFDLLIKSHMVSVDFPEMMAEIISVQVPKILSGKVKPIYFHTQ

SMILES	action on male sexual behaviour [1]	androgenic action on the prostate [2]	induction of reporter gene expression on the 1f-promoter [3]
C[C@]12CCC(=O)C[C@@H]1CC[C@@H]1[C@@H]2CC[C@]2(C)[C@@H](O)CC[C@@H]12 [DHT, dihydrotestosterone]	considerably less action	very strong androgen	
CCC(=O)O[C@H]1CC[C@H]2[C@@H]3CCC4=CC(=O)CC[C@]4(C)[C@H]3CC[C@]12C [testosterone propionate]			very potent stimulation
